Key:
Type in all cases: cell-based, human
[1] = tested on: pPAK1(T423)/pPAK2(T402) in MDA-MB-231 cells; experiment: pPAK immunoblot; conditions: 1 μM, 30 min
Protocol: (§1) FIG. 5: Cytoskeletal changes induced by IODVA1 treatment. IODVA1 inhibits lamellipodia and circular dorsal ruffle (CDR) formation in MDA-MB-231 cells and decreases Rac activation. (A) IODVA1 inhibits EGF-induced lamellipodia formation in MDA-MB-231 cells. MDA-MB-231 cells were plated on fibronectin-coated coverslips, serum starved for 4 h, incubated with the indicated concentrations of IODVA1 for 1 h, then EGF (50 ng/mL) stimulated, fixed and stained with Phalloidin Alexa Fluor 594 (F-Actin, pseudocolored red) and DAPI (nuclei, pseudocolored blue). […] The percentage of cells with CDRs was counted as the number of cells with CDRs normalized to the total number of cells in the field. Around 150 cells were counted per condition per experiment. Cells with multiple CDRs were counted only once. […] Levels of active Rac (RacGTP, % of control), active Cdc42 (Cdc42GTP, % of control) and active RhoA (RhoAGTP, % of control) were quantified using ImageJ and ImageLab and show combined data as mean±s.e.m. from at least 3 independent experiments. […]
(§2) To confirm that IODVA1 interferes with Rac activation, applicants checked the levels of active Rac and its downstream effector PAK1/2. MDA-MB-231 cells were incubated with IODVA1 (0-3 μM) for 1 h and levels of GTP-bound active Rac were measured by GST-PAK-GBD pull-downs and quantified (FIG. 5C). […]

[2] = tested on: active RhoA in MDA-MB-231 cells; experiment: Active GTPase pull-down (GST-Rhotekin RBD); conditions: 0-3 μM, 1 h
Protocol: as §1, §2

[3] = tested on: MDA-MB-231 cells expressing shVav3; experiment: Viability and proliferation, trypan blue exclusion; conditions: 0.1-1 μM
Protocol: FIG. 16: IODVA1 decreases levels of pVav3 in in vitro and in vivo models of triple negative breast cancer. (A) Immunoblot and quantification of Vav3 protein in lysates of MDA-MB-231 triple negative breast cancer cells stably expressing scrambled or Vav3-targeting shRNAs. Viability of the MDA-MB-231 cells stably expressing shVav3 in the presence of IODVA1 (0-1 μM). Cells were grown in the presence of IODVA1 and counted by trypan blue exclusion at the indicated time points. (B) MDA-MB-231 cells were incubated with IODVA1 (3 μM) for 15 min and the levels of phosphorylated Vav3 (pY173) were assessed by immunoblotting. (C) Immunohistochemical staining of phosphorylated Vav3 in tissue derived from MDA-MB-231 xenografts treated with vehicle control or IODVA1.
Next, we tested if IODVA1 is effective in another model of Vav3-dependent cancer. We chose MDA-MB-231 triple negative breast cancer cells because these cells express high endogenous levels of Vav3 (Chen, 2015) and because Vav3 is an acknowledged target in breast cancer (Chen, 2015; Lee, 2008; Aguilar, 2014; Citterio, 2012; Lorenzo-Martin. 2019). […] Second, we incubated MDA-MB-231 cells with IODVA1 (3 μM) for 15 min and analyzed the levels of phosphorylated Vav3 (pY173) by immunoblotting. […]

SMILES: OC1(c2ccccn2)N=C(Nc2nc3ccccc3[nH]2)N=C1c1ccccn1 (stereo not drawn) [IODVA1, (Z)-2-((1H-benzo[d]imidazol-2-yl)imino)-4,5-di(pyridin-2-yl)-2,5-dihydro-1H-imidazol-5-ol]
- decrease in levels of pPAK1/2 (T423/T402) [1]: 50%
- levels of active RhoA [2]: not affected
- viability and proliferation [3]: no effect

From patent US11564913B2, “Compositions and methods for treating cancer” (Children's Hospital Medical Center, priority 2019, dated 2023)
